For 4 compounds, MIC and ED50 results are on record in patent US7939513B2, “Tetracycline derivatives as antibacterial agents” (Dr. Reddy's Laboratories Limited, priority 2007, dated 2011).

In brackets after ≈: the same amount, converted by molar mass. Counter-ions that a name gives are not always drawn. Like-named read-outs stand apart in the source and are kept apart here.

Assay [1] has as its system E. coli DRCC 018 ATCC 25922. The assay is described as follows: In vitro MIC by broth microdilution. Type of assay: cell-based. Conditions: Escherichia coli, ATCC25922. The protocol:
(§1) Minimum Inhibition Concentrations (MICs) were determined by broth microdilution technique as per the guidelines prescribed in the fifth edition of Approved Standards NCCLS document M7-A5 Vol 20-No 2, 2000 Villinova, Pa. (Currently Clinical and Laboratory Standards Institute (CLSI)). Initial stock solution of the compound of formula (I) was prepared in DMSO. Subsequent two fold dilutions were carried out in sterile Cation adjusted Muller Hinton Broth (Difco) (MHB). Frozen cultures stocks were inoculated in 25 ml sterile MHB in 50 ml Erlyn Meyer flasks.
(§2) Composition of MHB is as follows: Beef Extract Powder—2.0 grams/litre, Acid Digest of Casein—17.5 grams/litre, Soluble Starch—1.5 grams/litre, Final pH 7.3±0.1
(§3) Flasks were incubated for 4 to 5 hours at 36±1° C. on a rotary shaker at 110 rpm. Inoculum was prepared by diluting the culture in sterile MHB to obtain a turbidity of 0.5 McFarland standard. This corresponds to 1−2×10^8 CFU/mL. The stock was further diluted to achieve a final inoculum density of 5×10^4 to 1×10^5 CFU/well. The plates were incubated 18 to 20 hours at 37° C.
A general note: Broth dilution looks for growth in wells or tubes with falling amounts of substance.

Assay [2] has as its system E. faecalis DRCC 034 VSE ATCC 29212. The assay is described as follows: In vitro MIC by broth microdilution. Type of assay: cell-based. The note with it: Enterococcus faecalis, ATCC29212. The protocol:
as §1, §2, §3

In assay [3] the test system is E. faecalis DRCC 153 VRE NCTC 12201. The assay is described as follows: In vitro MIC by broth microdilution. Type of assay: cell-based. Conditions: Enterococcus faecalis. The protocol:
as §1, §2, §3

Assay [4] deals with E. faecium DRCC 154 VRE NCTC 12202. In words: In vitro MIC by broth microdilution. The assay is classed as cell-based. The note with it: Enterococcus faecium. The protocol:
as §1, §2, §3

Assay [5] deals with K. pn DRCC 575 ATCC 700603. The assay is described as follows: In vitro MIC by broth microdilution. The assay is classed as cell-based. Conditions: Klebsiella pneumoniae, ATCC700603. The protocol:
as §1, §2, §3

Assay [6] concerns P. aeru DRCC 024 ATCC 27853. The assay is described as follows: In vitro MIC by broth microdilution. The assay is classed as cell-based. Conditions: Pseudomonas aeruginosa, ATCC27853. The protocol: as §1, §2, §3
For assay [7], the system named is S. aureus DRCC 019 MRSA ATCC 33591. The assay is described as follows: In vitro MIC by broth microdilution. The note with it: Staphylococcus aureus. The assay is classed as cell-based. The protocol: as §1, §2, §3
Assay [8] relates to S. aureus DRCC 035 MSSA ATCC 29213. In words: In vitro MIC by broth microdilution. Type of assay: cell-based. The note with it: Staphylococcus aureus. The protocol: as §1, §2, §3
The subject of assay [9] is E faecalis DRCC 543. In words: ED50 in murine systemic infection model. The note with it: Enterococcus faecalis, 120 h, Swiss Albino Mice, survival 5 days. The assay is classed as in vivo. The protocol:
(§4) Animals: Specific pathogen free outbred, female and male Swiss Albino Mice, 4-6 weeks old, weighing 25±2 grams.
(§5) Inoculum Preparation: • Systemic infection model is performed based on LD50 of an organism. 10-1000×LD50 or 1-5 MLD (minimum lethal dose) is used as an infecting inoculum. • Organisms are sub-cultured on blood agar plates and incubated at 35-37° C. for 18-24 hours. Inoculum is prepared in 0.9% normal saline and optical density adjusted at 560 nm to yield an inoculum density of 10^5 to 10^9CFU/mL based on the test organism. • Adjusted inoculum is further diluted 1:1 in mucin solution to achieve a final mucin concentration of 5-7.5% (wt/vol). • Log CFUs of inoculum is determined by serially diluting the inoculum in normal saline and plating on suitable agar plates. Plates are incubated at 35-37° C. for 18-24 hours and counts determined.
(§6) Infection: • Animals are infected with 0.5 ml of inoculum by intra-peritoneal route. • Two groups of mice left untreated, serve as untreated control.
(§7) Treatment: • For single dose, compound of formula (I) is administered at 0 to 3 hour post-infection by p.o./s.c./i.v. route. • For b.i.d., compound of formula (I) administered at 0 to 3 hour post-infection for first dose and at 4 to 6 hours post-infection for second dose by p.o./s.c./i.v. route.
(§8) End point: Survival/death in each treated and untreated groups are monitored for 5 days (7 days for S. pneumoniae). The ED50 values are determined by probit analysis.

In assay [10] the test system is E. Coli ATCC 25992. In words: ED50 in murine systemic infection model. Type of assay: in vivo. Conditions: Escherichia coli, 120 h, Swiss Albino Mice, survival 5 days. The protocol: as §4, §5, §6, §7, §8
For assay [11], the system named is MRSA DRCC 446. The assay is described as follows: ED50 in murine systemic infection model. The assay is classed as in vivo. Conditions: Staphylococcus aureus, 120 h, Swiss Albino Mice, survival 5 days. The protocol:
as §4, §5, §6, §7, §8

In assay [12] the test system is S. aureus DRCC 035 (ATCC 29213). In words: ED50 in murine systemic infection model. Type of assay: in vivo. Conditions: Staphylococcus aureus, 120 h, Swiss Albino Mice, survival 5 days. The protocol:
as §4, §5, §6, §7, §8

Assay [13] deals with S. pneumoniae ATCC 49619. The assay is described as follows: ED50 in murine systemic infection model. The assay is classed as in vivo. The note with it: Streptococcus pneumoniae, 168 h, Swiss Albino Mice, survival 7 days. The protocol:
as §4, §5, §6, §7, §8

The mark [14] stands for this setting: E. coli DRCC 018, ATCC 25922, read-out: MIC.
[15] abbreviates: E. faecalis DRCC 034, VSE, ATCC 29212, read-out: MIC.
The mark [16] stands for this setting: E. faecalis DRCC 153, VRE, NCTC 12201, read-out: MIC.
Setting [17] is: E. faecium DRCC 154, VRE, NCTC 12202, read-out: MIC.
The mark [18] stands for this setting: K. pn DRCC 575, ATCC 700603, read-out: MIC.
[19] abbreviates: P. aeru DRCC 024, ATCC 27853, read-out: MIC.
[20] abbreviates: S. aureus DRCC 019, MRSA, ATCC 33591, read-out: MIC.
[21] abbreviates: S. aureus DRCC 035, MSSA, ATCC 29213, read-out: MIC.

`CN(C)c1cc(NC(=O)[C@@H]2CCCN2C)c(O)c2c1C[C@H]1C[C@H]3[C@H](N(C)C)C(O)=C(C(N)=O)C(=O)[C@@]3(O)C(O)=C1C2=O` [Example 2, (S)—N-((5aR,6aS,7S,10aS)-9-carbamoyl-4,7-bis(dimethylamino)-1,8,10a,11-tetrahydroxy-10,12-dioxo-5,5a,6,6a,7,10,10a,12-octahydrotetracen-2-yl)-1-methylpyrrolidine-2-carboxamide]: the MIC – broadly, the least concentration at which growth counts as inhibited – is 0.12 µg/mL (≈ 0.206 µM) in assay [1] (setting [14]); 0.03 µg/mL (≈ 0.0514 µM) in [2] (setting [15]); 0.03 µg/mL (≈ 0.0514 µM) in assay [3] (setting [16]); 0.01 µg/mL (≈ 0.0171 µM) in assay [4] (setting [17]); 8 µg/mL (≈ 13.7 µM) in [5] (setting [18]); 16 µg/mL (≈ 27.4 µM) in assay [6] (setting [19]). The MIC in [7] (setting [20]) was determined as 0.25 µg/mL (≈ 0.428 µM); in assay [8] (setting [21]) it was 0.12 µg/mL (≈ 0.206 µM). The median effective dose (ED50) (in general, the dose that gives a 50% effect, or the effect in half of the subjects) amounted to 0.28 mg/kg in assay [9] (DRCC543, iv, E faecalis DRCC 543, i.v.-q.d.); 2.53 mg/kg in assay [9] (DRCC543, po, E faecalis DRCC 543, p.o.-b.i.d.); 0.5 mg/kg in assay [10] (ATCC25992, iv, E. Coli ATCC 25992, i.v.-q.d.); 12.6 mg/kg in assay [10] (ATCC25992, po, E. Coli ATCC 25992, p.o.-b.i.d.); 0.77 mg/kg in assay [11] (iv, MRSA DRCC 446, i.v.-q.d.); 7.3 mg/kg in [11] (po, MRSA DRCC 446, p.o.-b.i.d.). Also, the ED50 came to 0.6 mg/kg in [12] (ATCC29213, iv, i.v.-q.d.); 5.5 mg/kg in assay [12] (ATCC29213, po, p.o.-b.i.d.); 0.16 mg/kg in [13] (ATCC49619, iv, S. pneumoniae ATCC 49619, i.v.-q.d.); 6.2 mg/kg in assay [13] (ATCC49619, po, S. pneumoniae ATCC 49619, p.o.-b.i.d.).
As for `CCN1CCC[C@H]1C(=O)Nc1cc(N(C)C)c2c(c1O)C(=O)C1=C(O)[C@]3(O)C(=O)C(C(N)=O)=C(O)[C@@H](N(C)C)[C@@H]3C[C@@H]1C2` [Example 3, (S)—N-((5aR,6aS,7S,10aS)-9-carbamoyl-4,7-bis(dimethylamino)-1,8,10a,11-tetrahydroxy-10,12-dioxo-5,5a,6,6a,7,10,10a,12-octahydrotetracen-2-yl)-1-ethylpyrrolidine-2-carboxamide], the MIC in [1] (setting [14]) was 0.5 µg/mL (≈ 0.837 µM); in assay [2] (setting [15]), 0.12 µg/mL (≈ 0.201 µM); in assay [3] (setting [16]), 0.12 µg/mL (≈ 0.201 µM); in [4] (setting [17]), 0.06 µg/mL (≈ 0.1 µM); in [5] (setting [18]), 16 µg/mL (≈ 26.8 µM); in assay [6] (setting [19]), greater than 32 µg/mL. Further, the MIC in assay [7] (setting [20]) and in assay [8] (setting [21]) was 0.5 µg/mL (≈ 0.837 µM) each time.
Consider `CCCN1CCC[C@H]1C(=O)Nc1cc(N(C)C)c2c(c1O)C(=O)C1=C(O)[C@]3(O)C(=O)C(C(N)=O)=C(O)[C@@H](N(C)C)[C@@H]3C[C@@H]1C2` [Example 4, (S)—N-((5aR,6aS,7S,10aS)-9-carbamoyl-4,7-bis(dimethylamino)-1,8,10a,11-tetrahydroxy-10,12-dioxo-5,5a,6,6a,7,10,10a,12-octahydrotetracen-2-yl)-1-propylpyrrolidine-2-carboxamide], for which the minimal inhibitory concentration (MIC) in [1] (setting [14]) is 2 µg/mL (≈ 3.27 µM); in [2] (setting [15]), 0.25 µg/mL (≈ 0.409 µM); in assay [3] (setting [16]), 0.5 µg/mL (≈ 0.817 µM); in assay [4] (setting [17]), 0.12 µg/mL (≈ 0.196 µM); in assay [5] (setting [18]), greater than 32 µg/mL; in [6] (setting [19]), greater than 32 µg/mL. Also, the MIC in assay [7] (setting [20]) and in assay [8] (setting [21]) was 1 µg/mL (≈ 1.63 µM) in each case.
For the compound `CC(C)CN1CCC[C@H]1C(=O)Nc1cc(N(C)C)c2c(c1O)C(=O)C1=C(O)[C@]3(O)C(=O)C(C(N)=O)=C(O)[C@@H](N(C)C)[C@@H]3C[C@@H]1C2` [Example 7, (S)—N-((5aR,6aS,7S,10aS)-9-carbamoyl-4,7-bis(dimethylamino)-1,8,10a,11-tetrahydroxy-10,12-dioxo-5,5a,6,6a,7,10,10a,12-octahydrotetracen-2-yl)-1-isobutylpyrrolidine-2-carboxamide dihydrochloride], the MIC in assay [1] came out at 4 µg/mL; in [2], 0.5 µg/mL; in [3] it was 1 µg/mL; in assay [4] it was 0.5 µg/mL; in [5] it was 128 µg/mL; in assay [6] it was 64 µg/mL. Moreover, the MIC in assay [7] and in assay [8] was 2 µg/mL throughout.
